Data reported in paper PMC7287882, “Dual miRNases for Triple Incision of miRNA Target: Design Concept and Catalytic Performance” (Molecules, 2020).

Assays:
[1] = test system: miR-17; assay: Ribonuclease activity assay with DC or ON and RNase H, miR-17; type: biochemical; settings: for total extent of miRNA cleavage in the presence of RNase H: miRNA 1 µM, DC or ON 20 µM, buffer (2) pH 7.8, 37 °C, at plateau, by 2 h
Description: (§1) It is known that DNA-like antisense oligonucleotides after binding to target RNAs form a substrate for intracellular endonuclease RNases H. RNA hydrolysis in RNA-DNA heteroduplex by RNase H1 occurs at a distance of 6–10 nucleotides from the 5′-end of RNA (approximately one turn of the helix). Our design of the Dual conjugates here was carried out in such a way to ensure that their heteroduplexes with the matching miRNA sequences could serve as potential substrates for RNase H. To achieve that, we ensured that the length of the oligonucleotide recognition motifs A and B within the DC was 8–10 nt, which was expected to be sufficient for interaction and cleavage by RNase H (see Figure 1 and Table 1). As indicated above, a few adenine aromatic basis within each recognition motifs A and B were replaced with 2-aminoadenines to enhance the hybridization ability of the DC with miRNA. […] In order to verify this, as well as to evaluate the ability of RNase H to contribute to the miRNA cleavage catalyzed by DC, we studied the kinetics of the target miRNA cleavage performed (1) by the DC alone; (2) by RNase H, when the target miRNA was hybridized with the nonconjugated Dual oligonucleotide (ON); and (3) by both DC and RNase H present in the same reaction mixture. The study was performed against miR-17, miR-155 and miR-21 using a 20-fold excess of DCs or respective oligonucleotides over the matching miRNA (see Table 1 for sequences).
(§2) Figure 6 Cleavage kinetics of 5′-[^32P]-labeled miRNAs by DCs and/or RNase H. (a,d,g). Radioautographs of 18% denaturing PAAG showing the profiles of cleavage of miR-17, miR-155 and miR-21, respectively. Duplexes formed by 5′-[^32P]-miRNA (1 µM) and DC or ON (20 µM) were incubated at 37 °C for 48–72 h. RNase H was taken in the concentration of 5 or 100 u/mL. Lanes Im and T1–imidazole ladder and partial RNA digestion with RNase T1, respectively; control–RNA was incubated in the absence of DC or ON and in the presence of RNase H (100 u/mL); (b,e,h) Time dependency of cleavage of miR-17, miR-155 and miR-21, respectively, by DCs and/or RNase H. Data are presented as mean ± s.e. *—indicates statistically significant difference with p < 0.05; (c,f,i). Positions of miR-17, miR-155 and miR-21 cleavage, respectively, induced by RNase H in duplex with ON (red arrows), and by combination of DC (black arrows) and RNase H. A–2-aminoadenine.
(§3) The reaction mixture (10 µL) containing 20 mM Tris-HCl, pH 7.8, 40 mM KCl, 8 mM MgCl2, 1 mM DTT, 0.02 mg/mL BSA, 800 cpm (Cherenkov’s counting) of [^32P]-miRNA, 1 µM unlabeled miRNA, 20 µM either DC or Dual oligonucleotide was incubated at 37 °C for 20 min then RNase H (5 or 100 U/mL) was added and the mixture was further incubated for 48 h. Aliquots were taken at 0, 1, 6, 24 and 48 h then the reaction was quenched, RNA cleavage products were collected and analyzed as described above.

[2] = test system: miR-155; assay: Gel-retardation assay, hybridization with miR-155; type: binding; settings: 37 °C, 45 min, mean of 3
Text: We carried out a comparative analysis of the hybridization properties of the developed DCs with the corresponding SCs, which were the products of the first stage of the DCs synthesis. As discussed above, each SC consisted of the corresponding oligonucleotide A, which was complementary to the 5′-region of the matching miRNA target, and the catalytic peptide [LRLRG]2, attached to the 5′-end of this oligonucleotide via a thiohexyl linker (linker 2). […] Indeed, the level of binding of DCs to their miRNA targets reached 96, 90, 75, 55% at equimolar concentration (1 μM), and 99, 96, 92 and 69% at 5-fold excess of DCs over miR-17, miR-18a, miR-21 and miR-155, respectively (Figure 2). […]
The reaction mixture (4 µL) containing 50 mM Tris-HCl, pH 7.0, 200 mM KCl and 1 mM EDTA, 100 cpm (Cherenkov’s counting) of [^32P]-miRNA, 1 μM unlabeled miRNA, a conjugate at a concentration ranging from 0.1 to 10 μM was incubated at 37 °C for 45 min and quenched by adding of a loading buffer (20% ficoll, 0.025% bromophenol blue, 0.025% xylene cyanol). […] Formation of the complex miRNA/conjugate was analyzed by electrophoresis in 15% native PAAG at 4 °C. The gels were analyzed using Molecular Imager FX. The extent of binding of conjugate to miRNA was determined as a ratio of radioactivity measured in the complex to the total radioactivity applied onto the gel lane.

[3] = test system: miR-21; assay: Ribonuclease activity assay with DC or ON and RNase H, miR-21; type: biochemical
Description: as §1
as §2, with “Positions of miR-17, miR-155 and miR-21 cleavage, respectively, induced by RNase H in duplex with ON (red arrows), and by combination of DC (black arrows) and RNase H. A–2-aminoadenine.” left out
as §3

In the case of “CTACCTGC–linker 1–[GRLRL]2–linker 2–AAGCACTTTG [miRNA-17-DC, Dual oligonucleotide-peptide conjugate targeted to miR-17: catalytic peptide [LRLRG]2 between two 2-aminoadenine-containing oligodeoxyribonucleotides]”, the “total extent of miRNA cleavage in the presence of RNase H” value ([1]; RNase H 5 u/mL) was 44%, the “total extent of miRNA cleavage in the presence of RNase H” value ([1]; RNase H 100 u/mL) was 92% and the “total efficiency of cleavage in the complex with DC relative to the miRNA/ON complex” value ([1]; RNase H at both 5 and 100 u/mL) was “more than 1.5 fold”. For the same substance, the “increase in the rate of cleavage by DC with RNase H compared with DC alone” value ([1]; after 1 h) was “up to 10 fold” and the “increase in the rate of cleavage by DC with RNase H compared with RNase H alone” value ([1]; after 1 h) was 1.5 fold.
For “ACCCCTAT–linker 1–[GRLRL]2–linker 2–TTAGCATTAA [miRNA-155-DC, Dual oligonucleotide-peptide conjugate targeted to miR-155: catalytic peptide [LRLRG]2 between two 2-aminoadenine-containing oligodeoxyribonucleotides]”, the “level of binding of DC to miRNA target” value ([2]; 5-fold excess of DC over miRNA (1 µM), same buffer) was 69% and the “level of binding of DC to miRNA target” value ([2]; equimolar, DC 1 µM : miRNA 1 µM, 50 mM Tris-HCl pH 7.0, 200 mM KCl, 1 mM EDTA) was 55%.
“TCAACATC–linker 1–[GRLRL]2–linker 2–GATAAGCTA [miRNA-21-DC, Dual oligonucleotide-peptide conjugate targeted to miR-21: catalytic peptide [LRLRG]2 between two 2-aminoadenine-containing oligodeoxyribonucleotides]” was tested, and the “increase in rate of cleavage by DC in the presence of RNase H” value ([3]; RNase H 5 u/mL, versus DC alone) was 4 fold, the “total extent of cleavage by DC and RNase H” value ([3]; RNase H 5 u/mL, miRNA 1 µM, DC 20 µM, buffer (2), 37 °C) was 40% and the “increase in rate of cleavage compared with DC alone” value ([3]; RNase H 100 u/mL) was 20 fold. The “cleavage by DC and RNase H” value ([3]; RNase H 100 u/mL, completed in the first hour of incubation) was 100%.
